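Grown in 96-well plates, cells were treated for 48 hours with each compound at five concentrations. Insufficient inhibition: endpoint recorded as highest concentration tested. Here, GI50 denotes the concentration required for 50% inhibition of growth.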 Active and inactive are the calls of the source. No stated cut-off is given here; in the data, active = GI50 up to about 1.1 µM and inactive = higher.
Assays:
Assay in all cases: NCI-60 cell line screen, 48 h
CAKI-1 = tested on: CAKI-1
COLO 205 = tested on: COLO 205
HCT-116 = tested on: HCT-116
HOP-92 = tested on: HOP-92
IGROV-1 = tested on: IGROV-1
LOX IMVI = tested on: LOX IMVI
M14 = tested on: M14
NCI-H23 = tested on: NCI-H23
OVCAR-3 = tested on: OVCAR-3
OVCAR-5 = tested on: OVCAR-5
RXF 393 = tested on: RXF 393
SNB-19 = tested on: SNB-19
TK-10 = tested on: TK-10
UACC-62 = tested on: UACC-62
SK-MEL-2 = tested on: SK-MEL-2
SR = tested on: SR

SMILES | GI50 (CAKI-1) | GI50 (COLO 205) | GI50 (HCT-116) | GI50 (HOP-92) | GI50 (IGROV-1) | GI50 (LOX IMVI) | GI50 (M14) | GI50 (NCI-H23) | GI50 (OVCAR-3) | GI50 (OVCAR-5) | GI50 (RXF 393) | GI50 (SNB-19) | GI50 (TK-10) | GI50 (UACC-62) | GI50 (SK-MEL-2) | GI50 (SR)
C[N+](C)(C)C1CC([N+](C)(C)C)C2c3ccccc3C21 (centres undefined) | > 100 µM (inactive) | > 100 µM (inactive) | > 100 µM (inactive) | > 100 µM (inactive) | > 100 µM (inactive) | > 100 µM (inactive) | > 100 µM (inactive) | > 100 µM (inactive) | > 100 µM (inactive) | > 100 µM (inactive) | > 100 µM (inactive) | > 100 µM (inactive) | > 100 µM (inactive) | > 100 µM (inactive) |  | 
Cn1cnc([N+](=O)[O-])c1Sc1nnnn1C | 17.1 µM (inactive) | 12.8 µM (inactive) | 14.9 µM (inactive) | 12.3 µM (inactive) | 19.5 µM (inactive) | 13.4 µM (inactive) | 14.8 µM (inactive) | 19.6 µM (inactive) | 15.9 µM (inactive) | 23.9 µM (inactive) |  | > 100 µM (inactive) | 17.5 µM (inactive) | 17.1 µM (inactive) | 16.9 µM (inactive) | 11.4 µM (inactive)
CN(/N=C\c1ccnc2ccccc12)c1ccccc1 | 31.5 µM (inactive) | 20.3 µM (inactive) | 17.6 µM (inactive) | 25.4 µM (inactive) | 45.5 µM (inactive) | 17.2 µM (inactive) | 18.9 µM (inactive) | 22.3 µM (inactive) | 20.2 µM (inactive) | 16.8 µM (inactive) | 30.2 µM (inactive) | 29.2 µM (inactive) | 35.3 µM (inactive) | 19.5 µM (inactive) | 19.5 µM (inactive) | 
O=C1C(=Cc2ccc(F)cc2)C(=O)c2ccccc21 | > 100 µM (inactive) | > 100 µM (inactive) | > 100 µM (inactive) | 0.925 µM (active) | > 100 µM (inactive) |  | > 100 µM (inactive) | > 100 µM (inactive) | > 100 µM (inactive) | > 100 µM (inactive) |  | > 100 µM (inactive) | > 100 µM (inactive) | > 100 µM (inactive) | > 100 µM (inactive) | 
CSc1nnc(COc2ccc(Cl)cc2)o1 | > 100 µM (inactive) | > 100 µM (inactive) | > 100 µM (inactive) |  | > 100 µM (inactive) | > 100 µM (inactive) | > 100 µM (inactive) | > 100 µM (inactive) | > 100 µM (inactive) | > 100 µM (inactive) | > 100 µM (inactive) | > 100 µM (inactive) | > 100 µM (inactive) | > 100 µM (inactive) |  | 
OCC1OC(n2ccc3cnccc32)CC1O (centres undefined) | > 100 µM (inactive) | > 100 µM (inactive) | > 100 µM (inactive) | > 100 µM (inactive) | > 100 µM (inactive) | > 100 µM (inactive) | > 100 µM (inactive) | > 100 µM (inactive) | > 100 µM (inactive) | > 100 µM (inactive) |  | > 100 µM (inactive) | > 100 µM (inactive) | > 100 µM (inactive) | > 100 µM (inactive) | > 100 µM (inactive)
CCC12C=CCN(CCc3c([nH]c4ccccc34)/C=C\1)C2 (centres undefined) | > 100 µM (inactive) | > 100 µM (inactive) | > 100 µM (inactive) |  | > 100 µM (inactive) | > 100 µM (inactive) | > 100 µM (inactive) | > 100 µM (inactive) | > 100 µM (inactive) |  |  | > 100 µM (inactive) |  | > 100 µM (inactive) | > 100 µM (inactive) | > 100 µM (inactive)
O=c1c2ccccc2nc(-c2ccccc2Cl)n1NC1OC(CO)C(O)C(O)C1O (centres undefined) | > 100 µM (inactive) | > 100 µM (inactive) | > 100 µM (inactive) | > 100 µM (inactive) | > 100 µM (inactive) |  | > 100 µM (inactive) | > 100 µM (inactive) | > 100 µM (inactive) | > 100 µM (inactive) |  | > 100 µM (inactive) | > 100 µM (inactive) | > 100 µM (inactive) | > 100 µM (inactive) | 
COc1ccc(C(=O)C(CC2C(=O)NC(=O)NC2=O)c2ccc(OC)cc2)cc1 (centres undefined) | > 100 µM (inactive) | > 100 µM (inactive) | > 100 µM (inactive) |  | > 100 µM (inactive) | > 100 µM (inactive) | > 100 µM (inactive) | > 100 µM (inactive) | > 100 µM (inactive) | > 100 µM (inactive) | > 100 µM (inactive) | > 100 µM (inactive) | > 100 µM (inactive) | > 100 µM (inactive) | > 100 µM (inactive) | > 100 µM (inactive)
CC(C)O/C=C1\C(=O)C2(SCCS2)[C@H]2CCCC[C@@H]12 | 29.2 µM (inactive) | 18.5 µM (inactive) | 34.4 µM (inactive) |  | 49.7 µM (inactive) |  | 42.6 µM (inactive) |  |  |  | 21.8 µM (inactive) | 39.5 µM (inactive) | 43 µM (inactive) | 20.9 µM (inactive) | 34.8 µM (inactive) | 48.9 µM (inactive)
CCOC(=O)COc1cccc2occc(=O)c12 | > 100 µM (inactive) | > 100 µM (inactive) | > 100 µM (inactive) | > 100 µM (inactive) | > 100 µM (inactive) | > 100 µM (inactive) | > 100 µM (inactive) | > 100 µM (inactive) | > 100 µM (inactive) | > 100 µM (inactive) |  | > 100 µM (inactive) | > 100 µM (inactive) | > 100 µM (inactive) | > 100 µM (inactive) | 
CCCCc1c2c(nc3c1CCc1cc4cc5c(nc4nc1-3)-c1nc3c(c(CCCC)c1CC5)CCC/C3=C\c1ccccc1)/C(=C/c1ccccc1)CCC2 |  | > 100 µM (inactive) | > 100 µM (inactive) |  | > 100 µM (inactive) | > 100 µM (inactive) | > 100 µM (inactive) | > 100 µM (inactive) | > 100 µM (inactive) |  | > 100 µM (inactive) | > 100 µM (inactive) | > 100 µM (inactive) | > 100 µM (inactive) |  | > 100 µM (inactive)
CCC(C)(C)n1c(C)nc2c1C(=O)c1ccccc1C2=O |  | 17 µM (inactive) | 13.6 µM (inactive) |  | 34 µM (inactive) | 19.4 µM (inactive) | 42.5 µM (inactive) | 27.7 µM (inactive) | 30.7 µM (inactive) |  | 21.1 µM (inactive) | 53.3 µM (inactive) | 31.8 µM (inactive) | 13.5 µM (inactive) | 18.7 µM (inactive) | 9.33 µM (inactive)
COc1cc(C(=O)C/C(CCC(=O)Nc2ccc(Cl)cc2Cl)=N/NC(=O)C(=O)NN)ccc1O | 46.2 µM (inactive) | > 100 µM (inactive) | > 100 µM (inactive) | > 100 µM (inactive) | > 100 µM (inactive) | 43.3 µM (inactive) | > 100 µM (inactive) | > 100 µM (inactive) | > 100 µM (inactive) | > 100 µM (inactive) | > 100 µM (inactive) | > 100 µM (inactive) | > 100 µM (inactive) | 53.8 µM (inactive) |  | 
